Results on ten compounds are retold here after article PMC4057736, “In Vitro Antiprotozoal Activity of Abietane Diterpenoids Isolated from Plectranthus barbatus Andr” (International Journal of Molecular Sciences, 2014).

Molecules are shown by their SMILES. Entries after “also recorded” stand apart in the source; their conditions may differ. Like-named read-outs stand apart in the source and are kept apart here. A value given as a limit tells only on which side of the number the result lay.

Data set [1] has as its system all protozoa species (P. falciparum, L. infantum, T. cruzi, T. brucei). Briefly: Antiprotozoal activity, statement pooled over all protozoa species tested. It is filed as cell-based. The note with it: for IC50: pooled over P. falciparum, L. infantum, T. cruzi, T. brucei, read-out: IC50 against all protozoa species. As for the experimental part: (§1) The integrated panel of microbial screens and standard screening methodologies were adopted as previously described. All assays were performed in triplicate, at the Laboratory of Microbiology, Parasitology and Hygiene at the University of Antwerp, Belgium. […] The selectivity antiprotozoal potential was assessed by simultaneous evaluation of cytotoxicity on a fibroblast (MRC-5) cell line.

Data set [2] can be described thus: Cytotoxicity assay (resazurin). It is filed as cell-based. To be noted: human, MRC-5 cells. As for the experimental part:
as §1
For the assay, 10^4 MRC-5 cells/well were seeded onto the test plates containing the pre-diluted sample and incubated at 37 °C and 5% CO2 for 72 h. Cell viability was assessed fluorimetrically after 4 h of addition of resazurin. Fluorescence was measured (excitation 550 nm, emission 590 nm) and the results were expressed as % reduction in cell viability compared to control.
Background: The colour change of resazurin is a common sign of viable cells or microbes.

For data set [3], the system named is Chloroquine-resistant P. falciparum 2/K 1-strain (erythrocytic schizonts). Briefly: Antiplasmodial activity (Malstat method). It is filed as cell-based, Plasmodium falciparum. The note with it: for IC50: Plasmodium falciparum, 72 h, read-out: P. falciparum IC50. As for the experimental part:
as §1
Chloroquine-resistant P. falciparum 2/K 1-strain was cultured in human erythrocytes O^+ at 37 °C under a low oxygen atmosphere (3% O2, 4% CO2, and 93% N2) in RPMI-1640, supplemented with 10% human serum. Infected human red blood cells (200 μL, 1% parasitaemia, 2% haematocrit) were added to each well and incubated for 72 h. After incubation, test plates were frozen at −20 °C. Parasite multiplication was measured by the Malstat method.

The test system of data set [4] is Trypanosoma brucei Squib-427 strain (suramin-sensitive) trypomastigotes. The experiment in a line: Antitrypanosomal activity, resazurin readout. It is filed as cell-based. The note with it: for IC50: Trypanosoma brucei, 72 h, read-out: T. brucei IC50; for T. brucei SI (selectivity index): versus MRC-5 cytotoxicity. As for the experimental part: as §1
(§2) About 1.5 × 10^4 trypomastigotes/well were added to each well and parasite growth was assessed after 72 h at 37 °C by adding resazurin [30]. […] The color reaction was read at 540 nm after 4 h and absorbance values were expressed as a percentage of the blank controls.

Data set [5] relates to L.infantum MHOM/MA(BE)/67 amastigotes. The experiment in a line: Antileishmanial activity, intracellular amastigotes in primary peritoneal mouse macrophages. It is filed as cell-based, Leishmania infantum. The note with it: for IC50: Leishmania infantum, Macrophage, 120 h, read-out: L. infantum IC50. As for the experimental part:
as §1
L.infantum MHOM/MA(BE)/67 amastigotes were collected from the spleen of an infected donor hamster and used to infect primary peritoneal mouse macrophages. To determine in vitro antileishmanial activity, 3 × 10^4 macrophages were seeded in each well of a 96-well plate. After 2 days outgrowth, 5 × 10^5 amastigotes/well were added and incubated for 2 h at 37 °C. Pre-diluted plant extracts were subsequently added and the plates were further incubated for 5 days at 37 °C and 5% CO2. Parasite burdens (mean number of amastigotes/macrophage) were microscopically assessed after Giemsa staining, and expressed as a percentage of the blank controls without plant extract.

Data set [6] has as its system T. cruzi Tulahuen CL2 (benznidazole-sensitive). The experiment in a line: Antitrypanosomal activity (Chagas), β-galactosidase readout on MRC-5 cells. It is filed as cell-based, Trypanosoma cruzi. To be noted: for IC50: Trypanosoma cruzi, MRC5, 168 h, read-out: T. cruzi IC50. As to the method:
as §1, §2

[7] abbreviates: MRC-5 SV2 cells (fibroblast cell line).
The mark [8] stands for this setting: chloroquine-resistant 2/K 1-strain.
[9] abbreviates: intracellular amastigotes in mouse macrophages, 5 days.
The mark [10] stands for this setting: Tulahuen CL2 on MRC-5 cells, 7 days.

For the compound `CC(C)C1=CC2=CC(=O)[C@H]3C(C)(C)CCC[C@]3(C)C2=C(O)C1=O` [Compound (3), taxodione], the 50% inhibitory concentration (IC50) in data set [1] was 6 to 31.6 µM; in data set [3] (setting [8]), 8.5 ± 0.7 µM; in data set [4] (Squib-427 trypomastigotes), 9.8 ± 0.7 µM; in data set [5] (setting [9]) it was 25.7 ± 2.3 µM; in data set [6] (setting [10]), 25.7 ± 2.3 µM. The compound further came in with a concentration for half-maximal inhibition (IC50) at 72 h in data set [2] (setting [7]) of 22.6 ± 1.3 µM. Besides, in data set [3] (versus MRC-5 cytotoxicity), the “P. falciparum SI (selectivity index)” value amounted to 2.6. Also, the “T. brucei SI (selectivity index)” value in data set [4] worked out at 2.3.

With `CCN(CC)CCCC(C)Nc1ccnc2cc(Cl)ccc12` (stereo not shown) [Chloroquine, reference compound], the IC50 in data set [3] turned out to be 0.04 ± 0.01 µM.

For the compound `CCCCCCCCCCCCCCCCOP(=O)([O-])OCC[N+](C)(C)C` [Miltefosine, reference compound], the IC50 in data set [5] (setting [9]) was found to be 2.4 ± 0.8 µM.

Turning to `CC(C)c1cc2c(c(O)c1O)C13CCCC(C)(C)C1C(O)C2OC3` (stereo not drawn) [Compound (5), 6α,11,12,-trihydroxy-7β,20-epoxy-8,11,13-abietatriene], the IC50 is 6 to 31.6 µM in data set [1]; 31.6 ± 1.9 µM in data set [3] (setting [8]); 15.9 ± 1.4 µM in data set [4] (Squib-427 trypomastigotes); 24.4 ± 3.2 µM in data set [5] (setting [9]); 24.4 ± 3.2 µM in data set [6] (setting [10]). In data set [2] (setting [7]), inhibition was half-maximal at 5.7 ± 0.9 µM (IC50 at 72 h).

Consider `CC(C)c1ccc2c(c1)CC[C@H]1C(C)(C)CCC[C@]21C` [Compound (1), dehydroabietane], for which the “antiprotozoal activity (in words)” value in data set [1] (overall verdict over all protozoa tested) is recorded as “no activity against all protozoal strains; also recorded: no antiprotozoal potential”. Further, the half-inhibitory concentration (IC50) in data set [1] was > 100 µM; in data set [3] (setting [8]), 124 ± 4.7 µM; in data set [4] (Squib-427 trypomastigotes) it was > 237 µM; in data set [5] (setting [9]), > 237 µM; in data set [6] (setting [10]), > 237 µM. In addition, the 50% inhibitory concentration (IC50) at 72 h in data set [2] (setting [7]) is > 237 µM. Moreover, the “T. brucei SI (selectivity index)” value in data set [4] is listed as >1. The “L. infantum SI (selectivity index)” value in data set [5] (versus MRC-5 cytotoxicity) is reported as > 1. Besides, the “T. cruzi SI (selectivity index)” value in data set [6] (versus MRC-5 cytotoxicity) is reported as >1.

As for `O=C(Cn1ccnc1[N+](=O)[O-])NCc1ccccc1` [Benznidazole, reference compound], the IC50 in data set [6] (setting [10]) is 2.5 ± 0.6 µM.

As for `Nc1nc(N)nc(Nc2ccc([As]3SCC(CO)S3)cc2)n1` (stereo not shown) [Melarsoprol, reference compound], in data set [4], the IC50 came out at 0.005 ± 0.001 µM.

`CC(C)C1=CC2=C(O)C(O)=C3C(C)(C)CCC[C@]3(C)C2=C(O)C1=O` [Compound (2), 5,6-didehydro-7-hydroxy-taxodone] gave an IC50 at 72 h in data set [2] (setting [7]) of 96.2 ± 5.8 µM. In addition, the IC50 in data set [3] was found to be 9.2 ± 0.6 µM; in data set [4] (Squib-427 trypomastigotes), 1.9 ± 0.4 µM; in data set [5], 25.7 ± 1.5 µM; in data set [6] (TULAHUEN) it was 25.7 ± 1.5 µM.

With `CC(C)c1cc2c(c(O)c1O)C13CCCC(C)(C)C1CC2OC3` (stereo not shown) [Compound (4), 20-deoxocarnosol], the IC50 in data set [1] was 6 to 31.6 µM; in data set [3] (setting [8]), 11.1 ± 0.6 µM; in data set [4] (Squib-427 trypomastigotes), 6 ± 0.8 µM; in data set [5] (setting [9]) it was 25.6 ± 1.2 µM; in data set [6] (setting [10]), 25.6 ± 1.2 µM. In data set [2], this compound had an IC50 at 72 h of 6 ± 0.3 µM.

On to `CC/C(=C(\c1ccccc1)c1ccc(OCCN(C)C)cc1)c1ccccc1` [Tamoxifen, reference compound], for which, in data set [2] (setting [7]), the half-inhibitory concentration (IC50) at 72 h worked out at 10.5 ± 2.5 µM.

In general, IC50 refers to the concentration that inhibits the measured activity by half.
